Test results taken from ChEMBL document CHEMBL1201862, “PubChem BioAssay data set” (2004).
Calls of active or inactive are those of the source.

How the values were obtained:
[1] = A2780 ovarian cancer cell cytotoxicity, dose response, cytotoxicity control, plate reader, dry powder samples (AID 743046); assay type: functional, cell-based
[2] = IGROV1 ovarian cancer cell cytotoxicity, dose response, PAX8 inhibitor project, plate reader, dry powder samples (AID 743043); assay type: functional, cell-based; conditions: IGROV-1
[3] = target: Paired box protein Pax-8 (Homo sapiens, UniProt Q06710); experiment: inhibitors of PAX8-driven TPO luciferase reporter, dose response, RMG-I cells, cherry-pick (AID 687027); assay type: functional, cell-based;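 also: luciferase reporter driven by Pax8 target thyroperoxidase promoter measured by SteadyGlo luminescence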
[4] = NIH:OVCAR-3 ovarian cancer cell cytotoxicity, dose response, PAX8 inhibitor project, plate reader, dry powder samples (AID 743044); assay type: functional, cell-based
[5] = cytotoxicity in OVCAR8 ovarian cancer cells, dose response, PAX8 project, cell-based, plate reader, dry powder samples (AID 743197); assay type: functional; conditions: OVCAR-8
[6] = target: T1, Histone-lysine N-methyltransferase NSD2 (Homo sapiens, UniProt O96028); assay type: biochemical
T1 sequence (O96028 whole entry): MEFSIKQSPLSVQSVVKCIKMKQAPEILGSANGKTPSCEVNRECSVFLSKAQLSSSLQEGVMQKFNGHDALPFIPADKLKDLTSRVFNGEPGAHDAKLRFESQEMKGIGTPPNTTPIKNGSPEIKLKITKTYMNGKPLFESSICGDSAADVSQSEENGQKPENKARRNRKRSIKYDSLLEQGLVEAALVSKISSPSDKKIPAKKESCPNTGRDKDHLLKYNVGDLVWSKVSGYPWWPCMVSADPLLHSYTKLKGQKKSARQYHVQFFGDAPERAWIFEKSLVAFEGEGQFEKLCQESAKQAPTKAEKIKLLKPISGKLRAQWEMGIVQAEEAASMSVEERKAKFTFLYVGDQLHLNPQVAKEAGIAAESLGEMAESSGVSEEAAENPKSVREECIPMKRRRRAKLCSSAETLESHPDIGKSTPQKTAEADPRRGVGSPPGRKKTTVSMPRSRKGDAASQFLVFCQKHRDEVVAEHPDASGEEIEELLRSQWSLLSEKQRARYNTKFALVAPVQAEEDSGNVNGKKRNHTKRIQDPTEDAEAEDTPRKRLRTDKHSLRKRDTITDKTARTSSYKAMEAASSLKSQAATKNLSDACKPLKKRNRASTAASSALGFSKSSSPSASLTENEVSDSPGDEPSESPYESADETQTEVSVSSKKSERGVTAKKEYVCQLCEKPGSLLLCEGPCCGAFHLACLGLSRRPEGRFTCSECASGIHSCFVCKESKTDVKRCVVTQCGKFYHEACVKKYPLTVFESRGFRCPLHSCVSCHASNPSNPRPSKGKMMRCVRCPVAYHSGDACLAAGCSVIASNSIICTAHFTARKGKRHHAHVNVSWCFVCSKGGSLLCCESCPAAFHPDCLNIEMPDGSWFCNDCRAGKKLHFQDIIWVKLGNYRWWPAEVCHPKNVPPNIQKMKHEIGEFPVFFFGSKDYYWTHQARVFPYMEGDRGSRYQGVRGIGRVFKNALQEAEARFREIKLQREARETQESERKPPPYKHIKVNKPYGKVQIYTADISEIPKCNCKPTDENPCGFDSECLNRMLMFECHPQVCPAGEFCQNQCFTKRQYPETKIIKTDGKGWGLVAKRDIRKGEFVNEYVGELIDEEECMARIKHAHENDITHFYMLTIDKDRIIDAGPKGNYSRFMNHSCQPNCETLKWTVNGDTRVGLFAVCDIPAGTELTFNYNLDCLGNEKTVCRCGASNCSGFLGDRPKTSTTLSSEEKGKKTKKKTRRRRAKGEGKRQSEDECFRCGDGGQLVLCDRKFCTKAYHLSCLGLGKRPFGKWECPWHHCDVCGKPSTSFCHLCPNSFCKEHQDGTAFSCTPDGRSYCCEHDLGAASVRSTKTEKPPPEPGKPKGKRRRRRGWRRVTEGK

[7] = target: T2, Trace amine-associated receptor 1 (Homo sapiens, UniProt Q96RJ0); experiment: Counterscreen for agonists of the human trace amine associated receptor 1 (hTAAR1): Fluorescence-based cell-based high throughput dose response assay to identify hTAAR1 agonist that also desensitize TAAR1 receptor response.; assay type: functional
T2 sequence (Q96RJ0 whole entry): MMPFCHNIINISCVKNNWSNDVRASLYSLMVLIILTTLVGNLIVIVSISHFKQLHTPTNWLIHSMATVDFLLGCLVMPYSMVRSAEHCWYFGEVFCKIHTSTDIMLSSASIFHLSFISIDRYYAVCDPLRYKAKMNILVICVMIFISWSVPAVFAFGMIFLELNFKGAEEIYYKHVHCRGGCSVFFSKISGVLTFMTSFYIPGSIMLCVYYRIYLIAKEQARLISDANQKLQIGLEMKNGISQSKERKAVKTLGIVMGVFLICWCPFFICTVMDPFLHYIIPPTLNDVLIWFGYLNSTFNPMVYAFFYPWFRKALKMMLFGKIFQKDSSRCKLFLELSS

[8] = target: T2, Trace amine-associated receptor 1; experiment: Fluorescence-based cell-based high throughput dose response assay to identify agonists of the human trace amine associated receptor 1 (TAAR1).; assay type: functional
[9] = cells; assay type: functional, cell-based
[10] = cells; assay type: functional, cell-based; remark: listed apart in the source
[11] = Luminescence-based cell-based high throughput dose response assay to identify activators of the DAF-12 from the parasite S. stercoralis (ssDAF-12).; assay type: functional

Chain of Paired box protein Pax-8 (Q06710 whole entry): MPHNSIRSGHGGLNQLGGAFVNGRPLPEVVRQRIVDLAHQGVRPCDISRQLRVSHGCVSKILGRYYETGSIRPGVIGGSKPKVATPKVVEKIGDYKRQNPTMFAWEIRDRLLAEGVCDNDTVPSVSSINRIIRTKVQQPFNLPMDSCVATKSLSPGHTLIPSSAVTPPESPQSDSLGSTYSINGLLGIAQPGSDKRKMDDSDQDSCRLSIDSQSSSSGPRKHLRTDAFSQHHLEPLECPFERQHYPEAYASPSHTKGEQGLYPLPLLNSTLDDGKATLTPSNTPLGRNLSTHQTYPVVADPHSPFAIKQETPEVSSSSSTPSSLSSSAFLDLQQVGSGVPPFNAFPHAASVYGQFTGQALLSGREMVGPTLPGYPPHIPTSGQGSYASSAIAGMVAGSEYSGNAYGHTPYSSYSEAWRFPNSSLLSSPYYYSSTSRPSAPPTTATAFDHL

Row | SMILES | IC50 [7] | EC50 [8] | IC50 [9] | EC50 [10] | also measured
1 | C[C@@H]1CN([C@H](C)CO)C(=O)c2cc(NC(=O)Nc3ccc(C(F)(F)F)cc3)ccc2O[C@@H](C)CCCCO[C@H]1CN(C)C(=O)Nc1ccc(C(F)(F)F)cc1 |  |  |  |  | AC50 [1]: 34.1 µM (active); AC50 [2]: 63 µM (active); AC50 [3]: 1.89 µM (active); AC50 [4]: 12.4 µM (active); AC50 [5]: 52.3 µM (active)
2 | Oc1ccccc1CNc1cccc2cccnc12 |  |  |  |  | AC50 [6]: 14.4 µM (active)
3 | COc1ccc(C(c2nnnn2CCc2ccccc2)N2CCN(C3CCCC3)CC2)cc1 (stereo not given) | 8.17 µM (active) | 1.62 µM (active) | > 29.9 µM (inactive) | > 29.9 µM (inactive) | 
4 | O=[N+]([O-])c1cc(Cl)ccc1-c1nc(-c2ccccc2)no1 |  |  |  |  | IC50 [11]: > 67.6 µM (inactive)
5 | O=C(N[C@@H](Cc1cccnc1)C(=O)N1CCC[C@H]1C(=O)NCCc1ccccc1Cl)C1CC1 | 13.6 µM (inactive) | > 9.98 µM (active) | > 29.9 µM (inactive) | > 29.9 µM (inactive) | 
